Values joined by “and” are separate entries in the source; they are usually repeats but may differ in a detail not shown here. Equal values may be shown once.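 Growth conditions: 96-well plates. Treatment: test compound, 48 hours, 5 concentrations. Analysis: linear interpolation between bracketing concentrations; unreached endpoints set to highest concentration. The concentration for full growth arrest is given as TGI.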
Key:
Assay in all cases: NCI tumour cell line growth inhibition, 48 h
SK-MEL-5 melanoma = tested on: SK-MEL-5 melanoma
MDA-MB-231 breast = tested on: MDA-MB-231 breast
EKVX NSCLC = tested on: EKVX NSCLC
HOP-92 NSCLC = tested on: HOP-92 NSCLC
TK-10 renal = tested on: TK-10 renal
MCF7 breast = tested on: MCF7 breast
OVCAR-5 ovarian = tested on: OVCAR-5 ovarian
HCC-2998 colon = tested on: HCC-2998 colon
SNB-78 CNS = tested on: SNB-78 CNS
KM20L2 colon = tested on: KM20L2 colon
LXFL 529 NSCLC = tested on: LXFL 529 NSCLC
HOP-18 NSCLC = tested on: HOP-18 NSCLC

Row | SMILES | TGI (SK-MEL-5 melanoma) [µM] | TGI (MDA-MB-231 breast) [µM] | TGI (EKVX NSCLC) | TGI (HOP-92 NSCLC) [µM] | TGI (TK-10 renal) [µM] | TGI (MCF7 breast) [µM] | TGI (OVCAR-5 ovarian) [µM] | TGI (HCC-2998 colon) | TGI (SNB-78 CNS) [µM] | TGI (KM20L2 colon) [µM] | TGI (LXFL 529 NSCLC) | TGI (HOP-18 NSCLC) [µM]
1 | C[C@H](CCC1=NCCN1)[C@H]1CC[C@H]2[C@@H]3CC[C@@H]4C[C@H](O)CC[C@]4(C)[C@H]3C[C@H](O)[C@]12C | 24.5 | 34 | 34.4 µM | 30.9 | 26.9 | 28.5 | 28.1 | 27.6 µM | – | – | – | –
2 | O=c1[nH]c2ccccc2c2oc(-c3ccccc3)nc12 | > 100 | 38.1 | > 100 µM | 56.7 | > 100 | > 100 | > 100 | > 100 µM | – | – | – | –
3 | CCS(=O)(=O)c1c2cc(OC)ccc2nc2ccc(OC)cc12 | – | > 100 | > 100 µM | > 100 | > 100 | > 100 | > 100 | > 100 µM | – | – | – | –
4 | CC(=O)NC1=C(NCc2ccc(Cl)cc2)C(=O)c2ccccc2C1=O | 11.4 | – | 31.4 µM | – | 15.1 | – | – | > 50 µM | 24.1 | > 50 | 13 µM | –
5 | O=C(O)C1SCCS1 | > 100 | > 100 | > 100 µM | > 100 | > 100 | > 100 | > 100 | > 100 µM | – | – | – | –
6 | CCOc1cc(C2SCC(=O)N2c2nc3cc4sc(N5C(=O)CSC5c5ccc(O)c(OCC)c5)nc4cc3s2)ccc1O (centres undefined) | > 100 | > 100 | > 100 µM | > 88.6 | > 100 | > 86.3 | > 100 | > 100 µM | – | – | – | –
7 | NCCCCNC1(c2cc3ccccc3s2)CCCCC1 | 3.63 | 11.4 | 29.1 µM | 20.8 | 10.4 | 9.75 | 19.2 | 3.1 µM | – | – | – | –
8 | C#CCOC(=O)C(N)CCCN=C(N)N (centres undefined) | > 100 | > 100 | > 100 µM | > 100 | > 100 | > 100 | > 100 | > 100 µM | – | – | – | –
9 | O=C1C(N=Nc2ccc(-c3nc4ccccc4[nH]3)cc2)NC(=S)N1c1ccccc1 (centres undefined) | > 100 | > 100 | > 100 µM | > 100 | > 100 | 24.8 | > 100 | 41.7 µM | – | – | – | –
10 | COC1/C=C/C(C)C(C(C)C(OC)C(C)CCC(=O)C(C)C(C/C=C/N(C)C=O)OC)OC(=O)/C=C/C=C(\C)CC(OC)C(OC)C2=CC(=O)O[C@@H](C(C)C(OC)CC(OC)/C=C/C(C)C(O)C1)[C@H]2O (some centres undefined) | 0.206 | 0.247 | 0.441 µM | 0.115 | 0.166 | 0.977 | 0.623 | 0.359 µM | – | – | – | –
11 | CC(C)C(C/C=C1\CC(CO)(COC(=O)CC(C(C)C)C(C)C)OC1=O)C(C)C (centres undefined) | 23 | 27.2 | 23.5 µM | 16.6 | 21.8 | 31.3 | 26.9 | 18.7 µM | – | – | – | –
12 | COc1cc(C(SCc2ccccc2)SCc2ccccc2)ccc1O | > 10 | > 10 | > 10 µM | > 10 | > 10 | > 10 | – | > 10 µM | – | – | – | –
13 | COc1ccc(C(O)/C(=C/n2ccnc2)c2ccccc2)cc1OC (centres undefined) | > 100 | – | > 100 µM | > 100 | > 100 | – | > 100 | > 100 µM | – | > 100 | – | > 100
14 | O=C(c1ccccc1)N1C(=S)N(c2ccc([N+](=O)[O-])cc2)C(=Nc2ccccc2)C1=Nc1ccccc1 | > 100 | > 100 | > 100 µM | > 100 | > 100 | > 100 | > 100 | > 100 µM | – | – | – | –
15 | OCCO[P+]1(OCCO)n2c3ccc2C(c2ccccc2)=C2C=CC(=N2)C(c2ccccc2)=c2ccc(n21)=C(c1ccccc1)C1=NC(=C3c2ccccc2)C=C1 | 0.164 | 0.275 | 1.04 µM | 0.399 | 1.5 | > 100 | 1.28 | 0.327 µM | – | – | – | –
16 | COc1cc(/C=C/C(=O)OC[C@H](Br)[C@H](OC(C)=O)c2ccc3c(c2)OCO3)cc(OC)c1OC | > 100 | > 100 | > 100 µM | > 100 | > 100 | > 100 | > 100 | > 100 µM | – | – | – | –
17 | COc1ccc(C2=CN3CCC[C@H]3C=C2c2cc(O)c(OC)c(OC)c2)cc1OC | 0.015 | 0.15 | 0.228 µM and 1.82 µM | 0.0294 | 0.153 | – | 0.127 | 0.0412 µM and 0.0431 µM | 0.0391 | – | 0.078 µM and 0.376 µM | 0.0504
18 | CC(C)(C)OC(=O)NCC(=O)N1CCCN(C(=O)CNC(=O)OC(C)(C)C)CC1 | > 100 | > 100 | > 100 µM | > 100 | > 100 | > 100 | > 100 | > 100 µM | – | – | – | –
19 | O=C(OCc1ccccc1)N1c2cc([N+](=O)[O-])ccc2C(=O)N2CCC[C@H]2C1O (some centres undefined) | > 100 | > 100 | > 100 µM | > 100 | > 100 | > 100 | > 100 | > 100 µM | – | – | – | –
20 | C/C(N=Nc1nc2ccccc2o1)=C1/C=CC=CN1O | > 100 | > 100 | 24.3 µM | 39.7 | 34.9 | 81.2 | 28.1 | 24.5 µM | – | – | – | –
21 | c1ccc(C2=C(c3ccccc3)P(c3ccccc3)C2)cc1 (centres undefined) | – | > 100 | – | > 100 | > 100 | > 100 | > 100 | > 100 µM | – | – | – | –
22 | CCCCCCCCC/C=C1\CC(CO)(COC(=O)c2ccccc2)OC1=O (centres undefined) | 28.6 | 40.4 | 34 µM | 30.4 | 44.4 | 48.9 | 33.2 | 39.3 µM | – | – | – | –
23 | CCC(C)C1(O)OC2CC3(C)OC(=CC3=O)/C(C)=C\C3OC(=O)C1(C)C32 (centres undefined) | 23.1 | 41.2 | 32.2 µM | 31.3 | 54.2 | 28.4 | > 100 | 30.1 µM | – | – | – | –
24 | COC(=O)CCN(CCC(=O)OC)C1CC1 | > 100 | > 100 | > 100 µM | > 100 | > 100 | > 100 | > 100 | > 100 µM | – | – | – | –

Source: PubChem BioAssay (NCI)
